Data reported in PubChem BioAssay (NCI).
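Where inhibition never reached the appropriate level, the endpoint shown equals the highest concentration tested. Otherwise, values were interpolated linearly from a five-concentration, 48-hour dose response in 96-well plates. Abbreviation: GI50, concentration required for 50% inhibition of growth. TGI: concentration producing complete growth inhibition.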

Columns and labels:
Test in all cases: growth of human tumour cells (NCI), 48 h
PC-3 prostate = test system: PC-3 prostate
TK-10 renal = test system: TK-10 renal
UO-31 renal = test system: UO-31 renal
HL-60(TB) leukemia = test system: HL-60(TB) leukemia
786-0 renal = test system: 786-0 renal
M14 melanoma = test system: M14 melanoma
U251 CNS = test system: U251 CNS
OVCAR-8 ovarian = test system: OVCAR-8 ovarian
NCI/ADR-RES ovarian = test system: NCI/ADR-RES ovarian
SK-OV-3 ovarian = test system: SK-OV-3 ovarian

Compound | GI50 (PC-3 prostate) | TGI (PC-3 prostate) | GI50 (TK-10 renal) | TGI (TK-10 renal) | GI50 (UO-31 renal) | TGI (UO-31 renal) | GI50 (HL-60(TB) leukemia) | TGI (HL-60(TB) leukemia) | GI50 (786-0 renal) | TGI (786-0 renal) | GI50 (M14 melanoma) | TGI (M14 melanoma) | GI50 (U251 CNS) | TGI (U251 CNS) | GI50 (OVCAR-8 ovarian) | TGI (OVCAR-8 ovarian) | GI50 (NCI/ADR-RES ovarian) | TGI (NCI/ADR-RES ovarian) | TGI (SK-OV-3 ovarian) | GI50 (SK-OV-3 ovarian)
O=C(O)c1ccccc1NCn1nc(-c2ccccc2O)oc1=S | 43.6 µM | > 100 µM | > 100 µM | > 100 µM | > 100 µM | > 100 µM | 64.9 µM | > 100 µM | 35.4 µM | > 100 µM | 46.3 µM | > 100 µM | 48.3 µM | > 100 µM | > 100 µM | > 100 µM | 54 µM | > 100 µM |  | 
COc1ccccc1/C=C(\NC(=O)c1ccccc1)c1nc2ccc(Cl)cc2[nH]1 |  |  |  | 73.7 µM |  | 46.6 µM |  |  |  | 87.1 µM |  | > 100 µM |  | > 100 µM |  | 73 µM |  |  | 84 µM | 
O=C(O)c1ccccc1C(=O)c1ccco1 |  |  |  | > 100 µM |  | > 100 µM |  | > 100 µM |  | > 100 µM |  | > 100 µM |  | > 100 µM |  | > 100 µM |  |  |  | 
CCOC1c2nc3ccccc3nc2-c2ccccc2N1C(C)=O (configuration not stated) |  |  |  |  |  | > 100 µM |  | > 100 µM |  | > 100 µM |  | > 100 µM |  | > 100 µM |  | > 100 µM |  |  | > 100 µM | 
N#Cc1c(-c2ccccc2)c(-c2ccccc2)cc2c(=O)c3ccc(Cl)cc3[nH]c12 |  |  |  | > 100 µM |  | > 100 µM |  | > 100 µM |  | > 100 µM |  |  |  | > 100 µM |  | > 100 µM |  |  | > 100 µM | 
O=c1c2ccccc2nc(-c2cccc(Cl)c2)n1NC1OC(CO)C(O)C(O)C1O (configuration not stated) |  |  |  | > 100 µM |  | > 100 µM |  | > 100 µM |  | > 100 µM |  | > 100 µM |  | > 100 µM |  | > 100 µM |  |  | > 100 µM | 
CCOC(=O)C1=C(C)N(NC(N)=O)C2(N)N(NC(N)=O)C(C)=C(C(=O)OCC)C12C#N (configuration not stated) |  |  |  |  |  | > 100 µM |  |  |  | > 100 µM |  | > 100 µM |  | > 100 µM |  | > 100 µM |  |  | > 100 µM | 
O=[N+]([O-])c1cccnc1S(=O)(=O)c1ccccc1 |  |  |  | 22.2 µM |  | 14 µM |  | 7.01 µM |  | 7.09 µM |  | 22.5 µM |  | 22.8 µM |  | 26.8 µM |  |  | 44.7 µM | 
COc1ccc(/C=C/C(=O)c2c(-c3ccccc3)nn(C)c(=O)c2N2CCCCC2)cc1 |  |  |  | > 100 µM |  | 34.7 µM |  |  |  | 38.2 µM |  | 66 µM |  | 30.1 µM |  | > 100 µM |  |  | 77.6 µM | 
Oc1cn(-c2ccc(Cl)cc2)nc1-c1n[nH]c(=S)n1-c1ccc(F)cc1 | 14.8 µM | > 100 µM | 28.1 µM | > 100 µM | 25 µM | > 100 µM |  |  | 28.1 µM | > 100 µM | 15.1 µM | 45 µM | 15.8 µM | > 100 µM | 27.3 µM | > 100 µM | 15.4 µM | 54.9 µM | > 100 µM | > 100 µM
Cc1ccc(S(=O)(=O)Nc2ccccc2C(C)(C)C)cc1 |  |  |  | > 100 µM |  | 47.3 µM |  | 44.7 µM |  | 62.5 µM |  |  |  | 43.3 µM |  | > 100 µM |  |  | 81.3 µM | 
O=C(Nc1nc2ccc(S(=O)(=O)Nc3ccc(C4(C(F)(F)F)CC4)cc3)cc2[nH]1)c1cnccn1 | 1.06 µM | 2.47 µM | 8.16 µM | 22.5 µM | 3.02 µM | 13.9 µM |  |  | 2.77 µM | 12.6 µM | 1.12 µM | 11.1 µM | 4.74 µM | 22.5 µM | 5.51 µM | 31.8 µM | 1.73 µM | 11.8 µM |  | 
CNC(=O)OCc1nc(SSc2nc(COC(=O)NC)c(COC(=O)NC)n2C)n(C)c1COC(=O)NC |  |  |  | > 100 µM |  | > 100 µM |  | > 100 µM |  | > 100 µM |  | > 100 µM |  | > 100 µM |  | > 100 µM |  |  | > 100 µM | 
NC1=NC(c2ccccc2Cl)c2c(n[nH]c2N)N1 (configuration not stated) | 85.8 µM | > 100 µM | > 100 µM | > 100 µM | 9.21 µM | > 100 µM |  |  | 9.18 µM | > 100 µM | 18.1 µM | > 100 µM | 28 µM | > 100 µM | 45.6 µM | > 100 µM | 30.4 µM | > 100 µM | > 100 µM | > 100 µM
CCOC(=O)C[C@@]12CCCN[C@]1(C)CCc1ccccc12 |  |  |  | > 100 µM |  | > 100 µM |  | > 100 µM |  | > 100 µM |  | > 100 µM |  | > 100 µM |  | > 100 µM |  |  | > 100 µM | 
Cc1ccc(-n2c3nc(=O)n(C)c(=O)c-3nc3ccccc32)c(C)c1 |  |  |  | 27.2 µM |  | 52.5 µM |  | 29.2 µM |  | 42.1 µM |  | 18.6 µM |  | 32.1 µM |  | 32.9 µM |  |  | 75.8 µM | 
CC(C)(C)C1=NO[C@H]2[C@@H](NC(=O)c3ccccc3)CC[C@@H]12 |  |  |  | > 100 µM |  | > 100 µM |  | > 100 µM |  | > 100 µM |  | > 100 µM |  | > 100 µM |  | > 100 µM |  |  | > 100 µM | 
Cc1ccc(C(=O)Nc2ccc(Oc3cc4cnn(C)c4cc3-c3cn[nH]c3)c(F)c2)c(=O)n1-c1ccc(F)cc1 | 16.3 µM | > 100 µM | 1.95 µM | 35.1 µM | > 100 µM | > 100 µM |  |  | > 100 µM | > 100 µM | 2.96 µM | > 100 µM | 32.9 µM | > 100 µM | 48.8 µM | > 100 µM | > 94.1 µM | > 100 µM | > 100 µM | > 100 µM
O=C(CI)NC(=O)NC(=O)NCc1ccccc1 | 15.1 µM | 30.7 µM | 1.86 µM | 4.12 µM | 1.66 µM | 3.31 µM |  |  | 1.98 µM | 4.18 µM | 2.89 µM | 10.8 µM | 13.6 µM | 27.1 µM | 4.32 µM | 19.6 µM | 4.62 µM | 30.3 µM | 29 µM | 15.4 µM
